Assay [1] has as its target T1, SHP2 E76K (Homo sapiens, UniProt Q06124, E76K).
T1 construct: recombinantly expressed full-length SHP2 (aa 1-593) with E69K and E76K; purchased Novoprotein Scientific Inc
T1 sequence (Q06124 1-593 E76K): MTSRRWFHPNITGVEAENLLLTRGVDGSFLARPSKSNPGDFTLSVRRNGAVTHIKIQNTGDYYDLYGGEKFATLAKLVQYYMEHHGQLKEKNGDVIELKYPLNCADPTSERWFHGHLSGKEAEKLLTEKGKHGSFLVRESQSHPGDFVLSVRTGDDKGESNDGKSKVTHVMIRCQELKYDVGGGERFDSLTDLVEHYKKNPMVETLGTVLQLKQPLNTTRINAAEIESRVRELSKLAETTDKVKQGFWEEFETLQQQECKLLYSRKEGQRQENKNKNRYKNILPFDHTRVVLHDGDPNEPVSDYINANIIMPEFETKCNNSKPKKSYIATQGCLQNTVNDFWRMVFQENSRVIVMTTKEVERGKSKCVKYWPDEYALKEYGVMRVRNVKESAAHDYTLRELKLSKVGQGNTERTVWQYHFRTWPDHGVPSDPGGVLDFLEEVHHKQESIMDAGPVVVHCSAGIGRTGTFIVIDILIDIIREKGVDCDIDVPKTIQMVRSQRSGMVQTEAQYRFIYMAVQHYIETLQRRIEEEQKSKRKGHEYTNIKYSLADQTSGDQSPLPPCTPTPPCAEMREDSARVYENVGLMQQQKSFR
Put plainly: In vitro activity on SHP2 mutant E76K phosphatase. It counts as biochemical.
Method: (§1) The reaction solution was shaked (350 rpm) at room temperature for 30 minutes. The reaction substrate DiFMUP with a final concentration of 30 μM was added, and the reaction solution was reacted at room temperature for 30 minutes. The phosphatase reaction was stopped by adding 5 μL of stop solution (60 mM HEPES, pH 7.5, 0.2% SDS).

In assay [2] the target is T2, SHP2 wild-type phosphatase (recombinantly expressed full-length SHP2, aa 1-593) (Homo sapiens, UniProt Q06124).
T2 sequence (Q06124 1-593): T1 sequence (Q06124 1-593 E76K) with K76E
Put plainly: In vitro activity on SHP2 wild-type phosphatase (DiFMUP fluorescence).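 Also: enzyme preincubated at room temperature, then DiFMUP reaction run at room temperature and halted with SDS, potency derived from a logistic curve fit.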 Particulars: wild-type full-length SHP2, activated polypeptide IRS1 0.5 nM, DiFMUP 30 μM.

The target of assay [3] is T3, SHP2 E69K (Homo sapiens, UniProt Q06124, E69K).
T3 construct: recombinantly expressed full-length SHP2 (aa 1-593) with E69K and E76K; purchased Novoprotein Scientific Inc
T3 sequence (Q06124 1-593 E69K): T1 sequence (Q06124 1-593 E76K) with E69K, K76E
Briefly: In vitro activity on SHP2 mutant E69K phosphatase. The assay is classed as biochemical.
Method: as §1

Structures are written as SMILES. Substitutions are numbered along the chain they refer to. Where two headings read alike, the source gives them in different places.

The IC50 is the concentration that gives 50% inhibition. Take `CNc1nccc(Sc2c(C)nc(N3CCC4(CC3)Cc3ncccc3[C@H]4N)n3ccnc23)c1Cl` [Example 41, (S)-1′-(8-((3-Chloro-2-(methylamino)pyridin-4-yl)thio)-7-methylimidazo[1,2-c]pyrimidin-5-yl)-5,7-dihydrospiro[cyclopenta[b]pyridine-6,4′-piperidin]-5-amine]: the concentration for half-maximal inhibition (IC50) is 134 nM in assay [1] (SHP2 E76K the activated polypeptide was added IC50, activated polypeptide IRS1 added); 5.4 nM in assay [1] (SHP2 E76K the activated polypeptide was not added IC50, activated polypeptide not added); 2.1 nM in assay [2]; 8.5 nM in assay [3] (SHP2 E69K the activated polypeptide was added IC50, activated polypeptide IRS1 added); 0.91 nM in assay [3] (SHP2 E69K the activated polypeptide was not added IC50, activated polypeptide not added).
Turning to `CNc1nccc(Sc2cnc(N3CCC4(CC3)Cc3ncccc3[C@H]4N)n3ccnc23)c1Cl` [Example 43, (S)-1′-(8-((3-Chloro-2-(methylamino)pyridin-4-yl)thio)imidazo[1,2-c]pyrimidin-5-yl)-5,7-dihydrospiro[cyclopenta[b]pyridine-6,4′-piperidin]-5-amine], the IC50 in assay [1] (activated polypeptide IRS1 added, read-out: SHP2 E76K the activated polypeptide was added IC50) was determined as 78 nM; in assay [1] (activated polypeptide not added, read-out: SHP2 E76K the activated polypeptide was not added IC50), 4.2 nM; in assay [2], 2 nM; in assay [3] (activated polypeptide IRS1 added, read-out: SHP2 E69K the activated polypeptide was added IC50), 7.1 nM; in assay [3] (activated polypeptide not added, read-out: SHP2 E69K the activated polypeptide was not added IC50) it was 0.78 nM.

The values above are taken from patent US20220073521A1, “PYRIMIDINE AND FIVE-MEMBERED NITROGEN HETEROCYCLE DERIVATIVE, PREPARATION METHOD THEREFOR, AND MEDICAL USES THEREOF” (Tuojie Biotech (Shanghai) Co., Ltd., priority 2018, published 2022).
